Experimental data published in patent publication US8536202B2, “Triazole-substituted anthranilamides as pesticides” (Bayer Cropscience AG, priority 2010, dated 2013).
Read-outs that look alike come from different tables or passages of the source. Each block holds one compound with its values, some of them ahead of it.

Tests used:
[1] = log P determination by HPLC on reversed-phase columns (EEC Directive 79/831 Annex V.A8); assay type: physicochemical; conditions: pH 2.7
Method in brief: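 log P from reversed-phase LC-MS retention at pH 2.7, 0.1% formic acid water/acetonitrile gradient 10–95% acetonitrile. Calibrated against C3–C16 unbranched alkan-2-ones, interpolating linearly between adjacent alkanones.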

Boophilus microplus = Boophilus microplus test (BOOPMI injection); assay type: in vivo; conditions: Rhipicephalus microplus, 168 h, 20 μg/animal, after 7 days, read-out: activity in % (no fertile eggs laid)
Procedure: (§1) Solvent: dimethyl sulphoxide
An appropriate preparation of active compound is prepared by mixing 10 mg of active compound with 0.5 ml of solvent and diluting the concentrate with solvent to the desired concentration. The solution of active compound is injected into the abdomen (Boophilus microplus), and the animals are transferred to dishes and kept in a climatized room. Activity is assessed by deposition of fertile eggs.
After 7 days, the activity in % is assessed. Here, 100% means that none of the ticks has laid fertile eggs.

Lucilia cuprina larvae = experiment: Lucilia cuprina test (LUCICU); assay type: in vivo; conditions: 48 h, read-out: kill in %
Procedure: as §1
(§2) An appropriate preparation of active compound is prepared by mixing 10 mg of active compound with 0.5 ml of dimethyl sulphoxide and diluting the concentrate with water to the desired concentration.
Vessels containing horse meat treated with the preparation of active compound at the desired concentration are populated with approximately 20 Lucilia cuprina larvae.
After 2 days, the kill in % is ascertained. Here, 100% means that all of the larvae have been killed; 0% means that no larvae have been killed.

[2] = system: larvae of the mustard beetle (Phaedon cochleariae); experiment: Phaedon test (PHAECO spray treatment); assay type: in vivo; conditions: 168 h, read-out: activity in %
Method in brief: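 Compound dissolved in acetone/dimethylformamide with alkylaryl polyglycol ether emulsifier, then diluted with emulsifier-containing water to test concentration for spray treatment of Phaedon cochleariae larvae. Activity scored after 7 days as % larvae killed (100% = all dead, 0% = none).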

[3] = system: caterpillars of the armyworm (Spodoptera frugiperda); experiment: Spodoptera frugiperda test (SPODFR spray treatment); assay type: in vivo; conditions: 168 h, read-out: activity in %
Method in brief: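 Maize leaf discs sprayed with compound diluted in emulsifier-containing water (acetone/DMF solvent, alkylaryl polyglycol ether emulsifier), dried, then infested with armyworm caterpillars. Kill scored after 7 days as % mortality, 100% = all caterpillars dead, 0% = none.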

adult Musca domestica = experiment: Musca domestica test (MUSCDO); assay type: in vivo; conditions: 48 h, read-out: kill in %
Procedure: as §1
as §2, with “concentration. Vessels containing a sponge treated with the preparation of active compound at the desired concentration are populated with adult Musca domestica.” for “concentration.”
After 2 days, the kill in % is ascertained. Here, 100% means that all of the flies have been killed; 0% means that no flies have been killed.

[4] = system: green peach aphid (Myzus persicae); experiment: Myzus test (MYZUPE spray treatment), Use Example 4; assay type: in vivo; conditions: 144 h; for pest or weed control at 100 g/ha: read-out: activity in %
Method in brief: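 Compound was formulated in acetone/dimethylformamide with alkylaryl polyglycol ether emulsifier and diluted in emulsifier-containing water. It was sprayed onto Chinese cabbage leaf discs infested with all stages of Myzus persicae. Mortality (%) was scored after 6 days, where 100% means all aphids killed.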

[5] = reversed-phase C18 HPLC column, HPLC on reversed-phase columns (C 18), EEC Directive 79/831 Annex V.A8, read-out: logP
[6] = HPLC on reversed-phase columns (C 18), EEC Directive 79/831 Annex V.A8, read-out: logP

SMILES: Cc1cc(Br)cc(C(=O)NC(C)C)c1NC(=O)c1cc(Cn2ncc(C(F)(F)F)n2)nn1-c1ncccc1Cl [Example 175]
chromatographic logP [1]: 3.55 | pest or weed control at 0.02 mg (Boophilus microplus): 100% | pest or weed control at 100 ppm (Lucilia cuprina larvae): 100% | pest or weed control at 100 g/ha ([2]; 100 g/ha, after 7 days): 100% | pest or weed control at 100 g/ha ([3]; 100 g/ha, after 7 days): 100%

chromatographic logP [1, 5]: 3.73
SMILES: Cc1cc(C#N)cc(C(=O)NC(C)C2CC2)c1NC(=O)c1cc(Cn2cc(C(F)(C(F)(F)F)C(F)(F)F)nn2)nn1-c1ncccc1Cl (centres unmarked) [Example 218]
pest or weed control at 100 ppm (adult Musca domestica; 100 ppm, after 2 days): 85% | pest or weed control at 0.02 mg (Boophilus microplus): 100% | pest or weed control at 100 ppm (Lucilia cuprina larvae; 100 ppm, after 2 days): 100% | pest or weed control at 100 g/ha ([2]; 100 g/ha, after 7 days): 100% | pest or weed control at 100 g/ha ([3]; 100 g/ha, after 7 days): 100%

SMILES: NC(=O)c1cc(Cl)cc(Cl)c1NC(=O)c1cc(Cn2cc(C(F)(C(F)(F)F)C(F)(F)F)nn2)nn1-c1ncccc1Cl [Example 247]
pest or weed control at 100 ppm (adult Musca domestica): 100% | chromatographic logP [1]: 3.13 | pest or weed control at 0.02 mg (Boophilus microplus): 100% | pest or weed control at 100 ppm (Lucilia cuprina larvae): 100% | pest or weed control at 100 g/ha ([2]; 100 g/ha, after 7 days): 100% | pest or weed control at 100 g/ha ([3]; 100 g/ha, after 7 days): 100%

SMILES: Cc1cc(Cl)cc(C(N)=O)c1NC(=O)c1cc(Cn2ncc(C(F)(F)C(F)(F)C(F)(F)F)n2)nn1-c1ncccc1Cl [Example 384]
chromatographic logP [1, 6]: 3.5 | pest or weed control at 100 g/ha [4]: 100% | pest or weed control at 100 g/ha [2]: 100% | pest or weed control at 100 g/ha [3]: 100%

SMILES: CNC(=O)c1cc(C#N)cc(C)c1NC(=O)c1cc(Cn2ncc(C(F)(F)C(F)(F)C(F)(F)F)n2)nn1-c1ncccc1Cl [Example 387]
chromatographic logP [1, 6]: 3.39 | pest or weed control at 100 g/ha [4]: 100% | pest or weed control at 100 g/ha [2]: 100% | pest or weed control at 100 g/ha [3]: 100%

SMILES: Cc1cc(Cl)cc(C(=O)NC(C)(C)C)c1NC(=O)c1cc(Cn2nc(C(F)(F)F)c(C(F)(F)F)n2)nn1-c1ncccc1Cl [Example 393]
chromatographic logP [1]: 4.59 | pest or weed control at 100 g/ha ([4]; 100 g/ha, after 6 days): 90% | pest or weed control at 100 g/ha ([2]; 100 g/ha, after 7 days): 100% | pest or weed control at 100 g/ha ([3]; 100 g/ha, after 7 days): 100%

SMILES: Cc1cc(C#N)cc(C(N)=O)c1NC(=O)c1cc(Cn2nc(C(F)(F)F)c(C(F)(F)F)n2)nn1-c1ncccc1Cl [Example 396]
chromatographic logP [1]: 3.21 | pest or weed control at 100 g/ha ([4]; 100 g/ha, after 6 days): 90% | pest or weed control at 100 g/ha ([2]; 100 g/ha, after 7 days): 100% | pest or weed control at 100 g/ha ([3]; 100 g/ha, after 7 days): 100%

chromatographic logP [1, 5]: 4.05
SMILES: CSC[C@H](C)NC(=O)c1cc(C#N)cc(C)c1NC(=O)c1cc(Cn2nc(C(F)(F)F)c(C(F)(F)F)n2)nn1-c1ncccc1Cl [Example 400]
pest or weed control at 500 g/ha ([4]; 500 g/ha, after 6 days): 100% | pest or weed control at 100 g/ha ([2]; 100 g/ha, after 7 days): 100% | pest or weed control at 100 g/ha ([3]; 100 g/ha, after 7 days): 100%

SMILES: Cc1cc(I)cc(C(N)=O)c1NC(=O)c1cc(Cn2nc(C(F)(F)F)c(C(F)(F)F)n2)nn1-c1ncccc1Cl [Example 402]
chromatographic logP [1]: 3.67 | pest or weed control at 100 g/ha ([4]; 100 g/ha, after 6 days): 80% | pest or weed control at 100 g/ha ([2]; 100 g/ha, after 7 days): 100% | pest or weed control at 100 g/ha ([3]; 100 g/ha, after 7 days): 100%

SMILES: CSC[C@H](C)NC(=O)c1cc(Cl)cc(C)c1NC(=O)c1cc(Cn2nc(C(F)(F)F)c(C(F)(F)F)n2)nn1-c1ncccc1Cl [Example 408]
chromatographic logP [1]: 4.4 | pest or weed control at 100 g/ha ([4]; 100 g/ha, after 6 days): 90% | pest or weed control at 100 g/ha ([2]; 100 g/ha, after 7 days): 100% | pest or weed control at 100 g/ha ([3]; 100 g/ha, after 7 days): 100%

SMILES: Cc1cc(C#N)cc(C(=O)NC(C)(C)C)c1NC(=O)c1cc(Cn2nc(C(F)(F)F)c(C(F)(F)F)n2)nn1-c1ncccc1Cl [Example 412]
chromatographic logP [1]: 4.16 | pest or weed control at 100 g/ha ([4]; 100 g/ha, after 6 days): 80% | pest or weed control at 100 g/ha ([2]; 100 g/ha, after 7 days): 100% | pest or weed control at 100 g/ha ([3]; 100 g/ha, after 7 days): 100%

SMILES: CNC(=O)c1cc(C#N)cc(C)c1NC(=O)c1cc(Cn2nc(C(F)(F)F)c(C(F)(F)F)n2)nn1-c1ncccc1Cl [Example 414]
chromatographic logP [1]: 3.43 | pest or weed control at 100 g/ha ([4]; 100 g/ha, after 6 days): 100% | pest or weed control at 100 g/ha ([2]; 100 g/ha, after 7 days): 100% | pest or weed control at 100 g/ha ([3]; 100 g/ha, after 7 days): 100%
